According to PMC7997579, “Synthetic Lethality in Pancreatic Cancer: Discovery of a New RAD51-BRCA2 Small Molecule Disruptor That Inhibits Homologous Recombination and Synergizes with Olaparib” (Journal of Medicinal Chemistry, 2020):
≈ marks a conversion by molar mass, not a printed value. Where two headings read alike, the source gives them in different places.

Legend:
BxPC3 cells [1] = assay: Cell viability assay (CellTiter-Glo), association with olaparib; assay type: cell-based, human
Source text: Our working hypothesis is that compounds disrupting RAD51-BRCA2 interaction should affect HR repair and increase the efficacy of PARPi in treating breast, ovarian, and pancreatic cancer. For its clinical relevance, pancreatic adenocarcinoma was selected as our final model for cell-based experiments, and BxPC3 cells were selected for a straightforward comparison with the previously reported triazole derivatives.[30],[31] BxPC3 is derived from a human adenocarcinoma that expresses fully functional BRCA2.[38] As shown in Table 2 and according to the rationale of our hypothesis, our preliminary screening consisted of verifying the efficacy of compounds in inhibiting cell HR and/or in increasing the antiproliferative effect of olaparib. […] HR activity was assessed by evaluating the recombination rate between two transfected plasmids, using a commercially available assay. […] As for the emissucinic acid-containing compounds (4d, 12d, 18d, 20d–23d, 30d, 31d), one of the reasons for their lower potency in cells might be the general poor permeability, likely related to the ionizable acid moiety. […] We then characterized 35d in additional biophysical and cell-based experiments.
(§1) Cell viability was assessed with the CellTiter-Glo luminescent cell viability assay from Promega. For this experiment, 1 × 10^4 cells in 200 μL of culture medium were seeded into each well of a 96-multiwell white body plate and allowed to adhere overnight. After 72 h incubation in the presence of olaparib (10 μM) and the RAD51-BRCA2 disruptors alone or in combination, the plate was allowed to equilibrate at room temperature for 30 min and the CellTiter-Glo reactive was directly added to each well. The plate was kept on a shaker for 10 min to induce cell lysis, and its luminescence was measured with a Fluoroskan Ascent FL reader (Labsystems).

[2] = Solubility (as observed in cell culture media / stated); assay type: physicochemical
HK-2 = assay: Cell viability assay (antiproliferative effect), association with olaparib; assay type: cell-based, human; settings: HK-2, 72 h, 10 μM olaparib; two-way ANOVA
Description: (§2) Finally, the antiproliferative effect of the 35d/olaparib combination was also studied on the HR-defective Capan-1 culture and on a non-neoplastic cell line derived from human kidney (HK-2). Moreover, to evaluate the antineoplastic potency of the 35d/olaparib association, we also calculated the combination index (CI) of the two compounds, using the procedure previously described[30],[31] (Figure 9).
as §1

Capan-1 cells [3] = assay: as above; assay type: cell-based, human
Description: as §2, §1

Capan-1 cells [4] = assay: Immunofluorescence of nuclear γ-H2AX foci (DNA damage); assay type: cell-based, human; settings: Capan-1, 48 h, 20 μM 35d coadministered with 10 μM olaparib vs olaparib alone
Description: (§3) To evaluate DNA damage through γH2AX nuclear foci, BXPC3 and Capan1 cells were seeded on glass coverslips in 6-well tissue culture plate (2 × 10^5 cells/well) and allowed to adhere overnight. After 48 h treatment with olaparib (10 μM) or 35d (20 μM) given alone or in combination, cultures growing on coverslips were fixed and treated as described above. For this experiment, the used antibodies were a rabbit polyclonal anti-γH2AX (Abcam, 1:1000 in 5% BSA/PBS) and a secondary anti-rabbit rhodamine-labeled (Novus Biologicals, 1:1000 in 1% BSA/PBS). For both experiments, images were acquired using a Nikon fluorescent microscope equipped with filters for FITC, TRITC, and DAPI. The percentage of cells bearing nuclear foci was estimated by two independent observers, by analyzing 100–250 cells for each treatment sample.

BxPC-3 cells = assay: as above; assay type: cell-based, human; settings: BxPC-3, 48 h, 20 μM 35d + 10 μM olaparib vs olaparib alone
Description: as §3

RAD51 in BxPC-3 nuclei = assay: Immunofluorescence of RAD51 nuclear localization after cisplatin; assay type: cell-based, human; settings: BxPC-3, 50 μM cisplatin in association with 20 μM 35d
Description: Immunofluorescence was used for studying RAD51 nuclear translocation and for evaluating DNA damage through the detection of γH2AX nuclear foci. To visualize RAD51 in cell nuclei, BxPC-3 cells were seeded on glass coverslips placed in a 6-well culture plate (2 × 10^5 cells/well) and allowed to adhere overnight. Cultures were then preincubated with 20 μM 35d for 1 h and subsequently exposed to 50 μM cisplatin for an additional 1.5 h. Medium was removed, and cells were maintained in the presence of 20 μM 35d for 4 h. After this time, cultures growing on coverslips were fixed in PBS containing 1% formalin for 20 min, permeabilized in 70% ethanol, air-dried, and washed twice with PBS. Samples were incubated in 10% bovine serum albumin (BSA) in PBS for 30 min at 37 °C and subsequently exposed to an anti-RAD51 mouse monoclonal antibody (Santa Cruz Biotechnology, 1:1000 in 5% BSA/PBS) overnight at 4 °C. After washing, coverslips were incubated with an anti-mouse FITC-conjugated secondary antibody (1:1000 in 1% BSA/PBS) for 1 h at 37 °C, washed, air-dried, and mounted with a solution of DAPI (2 μg/mL) and DABCO.

BxPC-3 = assay: Cytotoxicity assay (CellTox Green), cell death; assay type: cell-based, human; settings: BxPC3, 72 h
Description: Cell death was assessed by applying the CellTox Green cytotoxicity assay (Promega). Briefly, BxPC-3 (1 × 10^4/well) were plated in 96-well plates and treated for 72 h with olaparib (10 μM) and the BRCA2-RAD51 disruptors administered alone or in combination. At the end of treatment, the CellTox dye was added to cell cultures and the green fluorescence signal, which is produced by the binding interaction with dead cell DNA, was measured following the manufacturer’s instructions.

BxPC3 cells [5] = assay: Micronuclei visualization; assay type: cell-based, human; settings: BxPC3, 72 h, 20 μM 35d + 10 μM olaparib vs single agents; p <0.01
Description: For micronuclei visualization, cells were grown on coverslips placed in a 6-multiwell plate (5 × 10^5 cells/well). After a 72 h treatment with olaparib (10 μM) or 35d (20 μM) given alone or in combination, wells were rapidly washed with PBS and then fixed for 10 min with cold methanol. Coverslips were then air-dried and mounted on glass slides using a solution of DAPI (5 μg/mL)/DABCO. Images were acquired on a Nikon fluorescent microscope equipped with filters for DAPI. […] The percentage of cells bearing micronuclei was estimated by two independent observers, by analyzing 100–250 cells for each treatment sample.

CCC(=O)N1N=C(c2c(-c3ccccc3)c3cc(Cl)ccc3[nH]c2=O)CC1c1ccc(OC)cc1 (centres unmarked) [Compound 35d, 6-Chloro-3-(5-(4-methoxyphenyl)-1-propionyl-4,5-dihydro-1H-pyrazol-3-yl)-4-phenylquinolin-2(1H)-one]
combination index (CI) with olaparib (BxPC3 cells [1]; BxPC3, 10 μM 35d + 10 μM olaparib): ~1
olaparib association (BxPC3 cells [1]; BxPC3, at 15 μM): olaparib association = present at 15 μM
combination index (CI) with olaparib (BxPC3 cells [1]; BxPC-3, 20 μM 35d + 10 μM olaparib, CI < 0.8 = synergism): < 0.8
solubility ([2]; HR assay medium (RPMI, 0.6% DMSO), kinetic from dmso stock, read-out: upper limit in terms of solubility): 40 µM (≈ 19.4 µg/mL)
solubility ([2]; stated in conclusions): low solubility
antiproliferative effect of 35d/olaparib vs olaparib (HK-2): no dose of 35d appeared to significantly increase
antiproliferative effect of 35d/olaparib (Capan-1 cells [3]; Capan-1, 72 h, 10 μM olaparib, two-way ANOVA): significantly increased antiproliferative effects
combination index (CI) with olaparib (Capan-1 cells [3]; Capan-1, all tested doses of 35d + 10 μM olaparib): ~1
γ-H2AX labeling in nuclei (Capan-1 cells [4]): not further enhanced
γ-H2AX labeling in nuclei (BxPC-3 cells): increased
RAD51 nuclear foci in cisplatin-treated cells (RAD51 in BxPC-3 nuclei): significantly reduced
cell death, effect of olaparib coadministration (BxPC-3; 20 μM 35d + 10 μM olaparib, p < 0.0001): markedly increased and statistically significant
cell death, effect of olaparib coadministration (BxPC-3; 10–15 μM 35d + 10 μM olaparib): no statistically significant increase
cells bearing micronuclei (BxPC3 cells [5]): markedly more frequent
